The text below walks through data of patent US20070093476A1, “Novel compounds and their use in medicine,as antidiabetic and hypolipidemic agents, process for their preparation and pharmaceutical compositions containing them” (priority 2003, published 2007).

Structures can show the parent of a compound that is named as a salt. Where two headings read alike, the source gives them in different places.

One series relates to Swiss albino mice. Nature of the series: Plasma triglyceride lowering activity in Swiss albino mice. It is filed as in vivo. The method, then:
b) Plasma Triglyceride and Total Cholesterol Lowering Activity in Swiss Albino Mice and Guinea Pigs
Male Swiss albino mice (SAM) and male Guinea pigs are obtained from NIN and housed in DRF animal house. All these animals are maintained under 12 hour light and dark cycle at 25±1° C. Animals are given standard laboratory chow (NIN, Hyderabad, India) and water, ad libitum. SAM of 20-25 g body weight range and Guinea pigs of 500-700 g body weight range are used (Oliver, P., Plancke, M. O., Marzin, D., Clavey, V., Sauzieres, J and Fruchart, J. C. Effects of fenofibrate, gemfibrozil and nicotinic acid on plasma lipoprotein levels in normal and hyperlipidemic mice. Atherosclerosis. 1988. 70 : 107-114).
The test compounds can be administered orally to Swiss albino mice at 0.3 to 30 mg/kg/day dose for 6 days. Control mice are treated with vehicle (0.25% Carboxymethylcellulose; dose 10 ml/kg). The test compounds are administered orally to Guinea pigs at 0.3 to 30 mg/kg/day dose for 6 days. Control animals are treated with vehicle (0.25% Carboxymethylcellulose; dose 5 ml/kg).
The blood samples can be collected in fed state 1 hour after drug administration on 0 and 6 day of treatment. The blood can be collected from the retro-orbital sinus through heparinised capillary in EDTA containing tubes. After centrifugation, plasma sample was separated for triglyceride and total cholesterol (Wieland, O. Methods of Enzymatic analysis. Bergermeyer, H. O., Ed., 1963. 211-214; Trinder, P. Ann. Clin. Biochem. 1969. 6 : 24-27). Measurement of plasma triglyceride, total cholesterol and HDL are done using commercial kits (Dr. Reddy's Diagnostic Division, Hyderabad, India).

In a further series the target is T1, hPPARα (Homo sapiens, UniProt Q07869).
T1 construct: expressed in transfected cells; host or cells: HEK-293
T1 sequence (Q07869 239-466 limits assumed): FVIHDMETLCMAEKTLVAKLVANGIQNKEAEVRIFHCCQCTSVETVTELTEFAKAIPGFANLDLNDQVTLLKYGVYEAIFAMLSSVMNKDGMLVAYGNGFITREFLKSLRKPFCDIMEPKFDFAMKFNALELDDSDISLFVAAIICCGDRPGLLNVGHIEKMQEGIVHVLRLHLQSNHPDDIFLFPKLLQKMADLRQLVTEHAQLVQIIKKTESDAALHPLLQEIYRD
Nature of the series: Determination of hPPARα activity (GAL4-LBD luciferase reporter transactivation in HEK-293 cells). It counts as cell-based. Particulars: 50 μM compound. The method, then: a) Determination of hPPARα Activity Ligand binding domain of hPPARα was fused to […] of Yeast transcription factor GAL4 in eucaryotic expression vector. Using superfect (Qiagen, Germany) as transfecting reagent HEK-293 cells are transfected with this plasmid and a reporter plasmid harboring the luciferase gene driven by a GAL4 specific promoter. Compound can be added at different concentrations after 42 hrs of transfection and incubated overnight. Luciferase activity as a function of compound binding/activation capacity of PPARα will be measured using Packard Luclite kit (Packard, USA) in Top Count (Ivan Sadowski, Brendan Bell, Peter Broag and Melvyn Hollis. Gene. 1992. 118 : 137-141; Superfect Transfection Reagent Handbook. February 1997. Qiagen, Germany).
On the technique in general: A reporter such as luciferase makes a cellular process visible.

A further series deals with T2, hPPARγ1 (Homo sapiens, UniProt P37231).
T2 construct: expressed in transfected cells; host or cells: HEK-293
T2 sequence (P37231 238-503 limits assumed): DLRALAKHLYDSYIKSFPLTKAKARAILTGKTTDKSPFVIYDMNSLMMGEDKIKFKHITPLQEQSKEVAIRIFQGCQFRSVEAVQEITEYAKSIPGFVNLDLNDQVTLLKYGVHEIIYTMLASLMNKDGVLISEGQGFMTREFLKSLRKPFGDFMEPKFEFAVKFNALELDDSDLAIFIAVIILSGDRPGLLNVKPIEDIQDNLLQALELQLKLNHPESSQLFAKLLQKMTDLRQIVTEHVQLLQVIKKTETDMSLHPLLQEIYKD
Nature of the series: Determination of hPPARγ activity (GAL4-LBD luciferase reporter transactivation in HEK-293 cells). It is filed as cell-based. To be noted: 1 μM compound. The method, then: b) Determination of hPPARγ Activity
Ligand binding domain of hPPARγ1 is fused to DNA binding domain of Yeast transcription factor GAL4 in eucaryotic expression vector. Using lipofectamine (Gibco BRL, USA) as transfecting reagent HEK-293 cells are transfected with this plasmid and a reporter plasmid harboring the luciferase gene driven by a GAL4 specific promoter. Compound can be added at 1 μM concentration after 48 hrs of transfection and incubated overnight Luciferase activity as a function of drug binding/activation capacity of PPARγ1 will be measured using Packard Luclite kit (Packard, USA) in Packard Top Count (Ivan Sadowski, Brendan Bell, Peter Broag and Melvyn Hollis. Gene. 1992. 118 : 137-141; Guide to Eukaryotic Transfections with Cationic Lipid Reagents. Life Technologies, GIBCO BRL, USA).

Setting [1] is: Swiss albino mice, 3 mg/kg/d oral, 6 days.
Setting [2] is: Mus musculus, 144 h, Swiss albino mice, 3 mg/kg/d oral, 6 days, read-out: % of Reduction in Triglyceride.
Where [3] appears, read: Mus musculus, po, 144 h, read-out: % of Reduction in Triglyceride.

With “2-Methyl-2-[3-{3-(3-methanesulfonyloxyphenoxy)propyloxy}phenoxy]propanoic acid Arginine salt [Example 61]”, in the series on Swiss albino mice (setting [1]), the “% of Reduction in Triglyceride” value was 51%.
Same read-out and setting: for “2-Methyl-2-[3-{3-(4-methanesulfonyloxyphenoxy)propyloxy}phenoxy]propanoic acid Arginine salt [Example 66]” the value was 71%.
One may read the melting point as the temperature, or range, at which the solid turns liquid. In turn, `CCOC(CCCc1ccc(NCc2ccc3cc(OS(C)(=O)=O)ccc3c2)cc1)C(=O)O` (centres unmarked) (as salt: salt) [Example 46, 2-Ethoxy-5-[4-{6-methanesulfonyloxynapth-2-ylmethylamino}phenyl]pentatonic acid Arginine salt] came in with a melting point of 118 to 120 °C.
The compound `CCOC(Cc1ccc(NCCCn2ccc3ccccc32)cc1)C(=O)O` (centres unmarked) (as salt: salt) [Example 47, 2-Ethoxy-3-[4-{3-(indol-1-yl)propylamino}phenyl]propanoic acid Arginine salt] yielded a melting point of 130 °C.
Turning to `CO[C@@H](Cc1ccc(NCCCn2ccc3ccccc32)cc1)C(=O)O` (as salt: salt) [Example 48, (S)-2-Methoxy-3-[4-{3-(indol-1-yl)propylamino}phenyl]propanoic acid Arginine salt], the melting point came out at 105 °C.
Regarding `CCO[C@@H](Cc1ccc(NCCCn2ccc3cc(OS(C)(=O)=O)ccc32)cc1)C(=O)O` (as salt: salt) [Example 49, (S)-2-Ethoxy-3-[4-{3-(5-methanesulfonyloxyindol-1-yl)propylamino}phenyl]propanoic acid Arginine salt], the melting point was 102 to 104 °C.
Regarding `CO[C@@H](Cc1ccc(NCCCn2ccc3cc(OS(C)(=O)=O)ccc32)cc1)C(=O)O` (as salt: salt) [Example 50, (S)-2-Methoxy-3-[4-{3-(5-methanesulfonyloxyindol-1-yl)propylamino}phenyl]propanoic acid Arginine salt], the melting point is 102 to 104 °C.
The same measure, in the same setting: under `CCOC(Cc1ccc(NCCCN2CCc3ccccc32)cc1)C(=O)O` (centres unmarked) (as salt: salt) [Example 52, 2-Ethoxy-3-[4-{3-2,3-dihydroindol-1-yl)propylamino}phenyl]propanoic acid Arginine salt] stands 130 to 132 °C; under `CCOC(Cc1ccc(NCC2CCc3cc(OS(C)(=O)=O)ccc3C2)cc1)C(=O)O` (centres unmarked) (as salt: salt) [Example 53, 2-Ethoxy-3-[4-{(6-methanesulfonyloxy-1,2,3,4-tetrahydronapth-2-yl)methylamino}phenyl]propanoic acid Arginine salt], 96 to 98 °C.
Compound `CCOC(Cc1ccc(NCCCC2CCc3cc(OS(C)(=O)=O)ccc3C2)cc1)C(=O)O` (centres unmarked) (as salt: salt) [Example 54, 2-Ethoxy-3-[4-{3-(6-methanesulfonyloxy-1,2,3,4-tetrahydronapth-2-yl)propylamino}phenyl]propanoic acid Arginine salt] came in with a melting point of 115 to 117 °C.
Compound `CCOC(Cc1ccc(NCCCN2CCCc3ccccc32)cc1)C(=O)O` (centres unmarked) (as salt: salt) [Example 55, 2-Ethoxy-3-[4-{3-1,2,3,4-tetrahydroquinolyn-1-yl)propylamino}phenyl]propanoic acid Arginine salt] displayed a melting point of 134 to 136 °C.
Consider `CCOC(=O)[C@H](Cc1ccc(NCc2ccc3cc(OS(C)(=O)=O)ccc3c2)cc1)OC` [Example 1, (S)-Ethyl 2-methoxy-3-[4-(6-methanesulfonyloxynapth-2-ylmethylamino)phenyl]propanoate], for which the melting point is 94 to 96 °C. The “PPAR fold activation, PPAR α at 50 μM concentration” value (from here on “PPAR fold activation, PPAR α”) on hPPARα stood at 2.7 fold. On hPPARγ1, the “PPAR fold activation, PPAR γ at 1 μM concentration” value (shortened to “PPAR fold activation, PPAR γ”) came to 9.2 fold.
In turn, `CCOC(=O)C(C)(C)Oc1ccc(NCc2ccc3cc(OS(C)(=O)=O)ccc3c2)cc1` [Example 4, Ethyl 2-methyl-2-[4-{6-methanesulfonyloxynapth-2-ylmethylamino}phenoxy]propanoate] had a melting point of 116 to 118 °C.
`CC(C)(Oc1ccc(NCc2ccc3cc(OS(C)(=O)=O)ccc3c2)cc1)C(=O)O` [Example 26, 2-Methyl-2-[4-(6-methanesulfonyloxynapth-2-ylmethylamino}phenoxy]propanoic acid] came in with a melting point of 182 to 184 °C. For the same compound, in the series on Swiss albino mice (setting [2]), the inhibition in vivo at 3 mg/kg/day is 10%.
In turn, `CC(C)(Oc1ccc(OCc2ccc3cc(OS(C)(=O)=O)ccc3c2)cc1)C(=O)O` [Example 37, 2-Methyl-2-[4-{6-methanesulfonyloxynapth-2-ylmethoxy}phenoxy]propanoic acid] came in with a melting point of 147 to 149 °C. In addition, in the series on Swiss albino mice (setting [2]), the inhibition in vivo at 3 mg/kg/day stood at 30%.
In turn, `CC(C)(Oc1cccc(CCCOc2ccc(OS(C)(=O)=O)cc2)c1)C(=O)O` [Example 42, 2-Methyl-2-[3-{3-(4-methanesulfonyloxyphenoxy)propyl}phenoxy]propanoic acid] displayed a melting point of 93 to 95 °C.
Take `CCOC(CCCc1ccc(NCc2ccc3cc(OS(C)(=O)=O)ccc3c2)cc1)C(=O)O` (centres unmarked) [Example 46, 2-Ethoxy-5-[4-{6-methanesulfonyloxynapth-2-ylmethylamino}phenyl]pentatonic acid Arginine salt]: the “PPAR fold activation, PPAR α” value on hPPARα came out at 3.2 fold. The “PPAR fold activation, PPAR γ” value at hPPARγ1 turned out to be 2.1 fold. Also, the inhibition in vivo at 10 mg/kg/day in the series on Swiss albino mice (setting [3]) stood at 12%.
For the compound `CCOC(Cc1ccc(NCCCN2CCc3ccccc32)cc1)C(=O)O` (centres unmarked) [Example 52, 2-Ethoxy-3-[4-{3-2,3-dihydroindol-1-yl)propylamino}phenyl]propanoic acid Arginine salt], the “PPAR fold activation, PPAR α” value at hPPARα is recorded as 4.0 fold. For the same compound, the “PPAR fold activation, PPAR γ” value on hPPARγ1 is 6 fold.
Regarding `CCOC(Cc1ccc(NCCCC2CCc3cc(OS(C)(=O)=O)ccc3C2)cc1)C(=O)O` (centres unmarked) [Example 54, 2-Ethoxy-3-[4-{3-(6-methanesulfonyloxy-1,2,3,4-tetrahydronapth-2-yl)propylamino}phenyl]propanoic acid Arginine salt], the inhibition in vivo at 3 mg/kg/day with Swiss albino mice (setting [3]) came to 43%.
Compound `CC(C)(Oc1ccc(CCCOc2ccc(-c3ccccc3)cc2)cc1)C(=O)O` [Example 63, 2-{4-[3-(Biphenyl-4-yloxy)-propyl]-phenoxy}-2-methyl-propanoic acid] gave a melting point of 130 to 133 °C.
Compound `CC(C)(C)OC(=O)Nc1ccc(OCCCc2ccc(OC(C)(C)C(=O)O)cc2)cc1` [Example 96, 2-Methyl-2-[4-{3-(4-(tert-butyloxycarbonylamino)phenoxy)propyl}phenoxy]propanoic acid] registered a melting point of 132 to 134 °C.
In turn, `CC(C)(Oc1ccc(CCCOc2ccc(NS(C)(=O)=O)cc2)cc1)C(=O)O` [Example 97, 2-Methyl-2-[4-{3-(4-(methanesulfonylamino)phenoxy)propyl}phenoxy]propanoic acid] registered a melting point of 122 to 124 °C.
